The values below come from paper PMC4810358, “Applicability of the Rayleigh equation for enantioselective metabolism of chiral xenobiotics by microsomes, hepatocytes and in-vivo retention in rabbit tissues” (Scientific Reports, 2016).

Data set [1] is described as follows: de-methylation (enantioselective degradation) by Lewis rat liver microsomes. The settings on record: RLM-L; for Overall first order kinetic constant, kc: racemate, 37 °C, 0–120 min; for Enantiomeric enrichment factor, εER: mean ± 95% confidence interval of Rayleigh slope, n = 3, NE = no enrichment. The class given is in vitro ADME. The procedure:
(§1) The reactions were initiated by the addition of 120 μl NADPH-regenerating system (100 μL of solution A and 20 μL of solution B) that were added after a 3-min pre-incubation of the incubation mixtures containing 10 μl of substrate (1 g/L), 50 μl human/rat hepatic microsomes (20 mg protein/ml) and […] sodium phosphate buffer, 0.1 M pH 7.4 final volume was 500 μl. The reactions were stopped at time intervals by cooling on ice and addition of 100 μl acetonitrile followed by the addition of 20 μL internal standards stock solution (0.1 g/L). After termination of the reaction 200 microliter sodium carbonate solution (1 M, pH 12) was added and samples were then vigorously shaken for 1 min and consequently extracted into 6 ml n-hexane/acetonitrile (98/2 vol/vol) using an Intelli mixer on 50 rpm for 5 min. after centrifugation for 10 min (6,000 rpm) the upper organic layer was collected and the procedure was repeated. The samples were eventually evaporated till dry under a gentle stream of nitrogen. The residue was dissolved in 200 microliter methanol and analyzed by HPLC-MS. These degradation studies were done in duplicates.
(§2) Control assays were run under the same conditions, with 200 μL insect control supersomes (5 mg protein/ml) used as a negative control, i.e containing no CYP450 but the same protein content (cytochrome b5), while 10 μl of Verapamil (1 g/L) and 50 μl human microsomes (20 mg protein/ml) was incubated for 30 min as a positive control.
(§3) The chiral separation method was based on methodology of Begnall et al.[62]. […] For all separations the column and autosampler were maintained at 25 °C, with an optimal chromatographic run time of 24 minutes, the injection volume was 10 μL. QTOF mass spectrometer equipped with an electrospray ionization source (Agilent G3251A Dual ESI) was used for chiral drug identification and quantification. Analysis was performed in positive mode with a capillary voltage potential of 4000 V; the nebulizer gas pressure was set to 40 psi and drying gas flow was 10 L/min, with a drying gas temperature of 300 °C. The fragmentor voltage was set at 140 V, and skimmer voltage was 65 V. Scan range was 50–1000 m/z, the other MS parameters remained at auto-tune conditions.
(§4) The enantiomeric ratios were expressed as the ER – the peak area of one enantiomer (the more abundant) divided by that of the other enantiomer.

Data set [2] can be described thus: de-methylation (enantioselective degradation) by human liver microsomes. The settings on record: HLM; for Overall first order kinetic constant, kc: racemate, 37 °C, 0–120 min; for Enantiomeric enrichment factor, εER: mean ± 95% confidence interval of Rayleigh slope, n = 3, NE = no enrichment. How it is done:
as §1, §2, §3, §4

Data set [3] is described as follows: de-methylation (enantioselective degradation) by Wistar Han rat liver microsomes. The class given is in vitro ADME. The settings on record: RLM-W; for Overall first order kinetic constant, kc: racemate, 37 °C, 0–120 min; for Enantiomeric enrichment factor, εER: mean ± 95% confidence interval of Rayleigh slope, n = 3, NE = no enrichment. The procedure:
as §1, §2, §3, §4

The nature of data set [4]: de-methylation (enantioselective degradation) by Sprague Dawley rat liver microsomes. The class given is in vitro ADME. To be noted: RLM-SD; for Overall first order kinetic constant, kc: racemate, 37 °C, 0–120 min; for Enantiomeric enrichment factor, εER: mean ± 95% confidence interval of Rayleigh slope, n = 3, NE = no enrichment. The procedure: as §1, §2, §3, §4
For data set [5] the following is noted: cited from earlier work; for first order half-life: hepatocytes from male Sprague-Dawley rats; for individual first order rate constant: myclobutanil, hepatocytes from male Sprague–Dawley rats.
Data set [6] in a line: enantioselective metabolism in rat hepatocytes (reported studies). The class given is in vitro ADME. The settings on record: ETO, reconstructed from concentration–time curves of Fig. 2 in ref 53; R^2 = 0.96. How it is done:
(§5) In addition to the microsome studies, the Rayleigh equation was fitted to reported studies on biodegradation of chiral compounds using liver microsomes and hepatocytes for which there was sufficient data available. We focused on studies published on years 2011–2015 that reported on first order kinetics and/or provided concentration - time profiles of the individual enantiomers after incubation of the racemate with the metabolizer, i.e. systems analyzed by approach II in the introduction.
Wang et al.[24] studied the enantioselective metabolism of the fungicide hexaconazole as well, they used male Sprague–Dawley rat hepatocytes. […] In a second test case, Wang et al.[52] studied the degradation of the fungicide myclobutanil in hepatocytes from male Sprague–Dawley rats.

Data set [7] in a line: stereoselective degradation of metalaxyl in hepatic microsomes (Zhang et al.). The class given is in vitro ADME, rat and rabbit. To be noted: reconstructed from data of Fig. 3a in ref 22; R^2 = 0.94. How it is done:
as §5

Where “and” joins values, the source holds several entries; their conditions need not be identical. Equal values may be shown once. Read-outs that look alike come from different tables or passages of the source.

Regarding `CN(C)CCCC1(c2ccc(F)cc2)OCc2cc(C#N)ccc21` (racemic) [CTM, (R,S)-citalopram], the “Overall first order kinetic constant, kc” value in data set [1] is 0.007 min⁻¹; in data set [2] it was 0.007 min⁻¹; in data set [3], 0.07 min⁻¹; in data set [4], 0.02 min⁻¹. Also, the “Enantiomeric enrichment factor, εER” value is given as −36 ± 3 (0.95) % in data set [2], −53 ± 3 (0.95) % in data set [3] and −10 ± 4 (0.92) % in data set [4].
As to `CNCCC(Oc1ccc(C(F)(F)F)cc1)c1ccccc1` (racemic) [FLX, (R,S)-fluoxetine], the “Overall first order kinetic constant, kc” value in data set [1] was found to be 0.04 min⁻¹; in data set [2] it was 0.01 min⁻¹; in data set [3] it was 0.06 min⁻¹; in data set [4], 0.02 min⁻¹.
Turning to `CN1CCN2c3ccccc3Cc3ccccc3C2C1` (racemic) [MNS, (R,S)-mianserin], the “Overall first order kinetic constant, kc” value was 0.03 min⁻¹ in data set [1], 0.004 min⁻¹ in data set [2], 0.008 min⁻¹ in data set [3] and 0.02 min⁻¹ in data set [4]. Also, the “Enantiomeric enrichment factor, εER” value in data set [1] was −53 ± 12 (0.98) %; in data set [2], −237 ± 29% and −237 ± 29 (0.92) %; in data set [3], −38 ± 5 (0.92) %; in data set [4], −11 ± 6 (0.92) %.
`CN(C)CC(c1ccc(O)cc1)C1(O)CCCCC1` (racemic) [O-DMV, (R,S)-O-desmethylvanlafaxine]: the “Overall first order kinetic constant, kc” value in data set [1] came out at 0.007 min⁻¹; in data set [2] it was 0.025 min⁻¹; in data set [3], 0.02 min⁻¹; in data set [4] it was 0.009 min⁻¹. The “Enantiomeric enrichment factor, εER” value in data set [1] is −59 ± 2 (0.94) %; in data set [2] it was −7 ± 1 (0.98) %; in data set [3], −4 ± 1% and −4 ± 1 (0.91) %; in data set [4] it was −9 ± 1 (0.96) %.
On to `CCOC1Oc2ccc(OS(C)(=O)=O)cc2C1(C)C` (single isomer, unassigned; (+)) [(+) ETO], for which, in data set [5] (ethofumesate), the first order half-life is 2.0 h.
With `CCCCCCC(C)OC(=O)COc1nc(F)c(Cl)c(N)c1Cl` (single isomer, unassigned; (+)) [(+) FPMH], the first order half-life in data set [5] (fluroxypyr methylheptyl ester) is 0.085 h.
Regarding `CCCCC(C#N)(Cn1cncn1)c1ccc(Cl)cc1` (single isomer, unassigned; (+)) [(+)-myclobutanil], the “individual first order rate constant” value in data set [5] was 0.065 h⁻¹.
Consider `CCOC1Oc2ccc(OS(C)(=O)=O)cc2C1(C)C` (single isomer, unassigned; (-)) [(−) ETO], for which, in data set [5] (ethofumesate), the first order half-life is on record as 4.1 h.
Take `CCCCCCC(C)OC(=O)COc1nc(F)c(Cl)c(N)c1Cl` (single isomer, unassigned; (-)) [(−) FPMH]: the first order half-life in data set [5] (fluroxypyr methylheptyl ester) was 0.218 h.
As for `CCCCC(C#N)(Cn1cncn1)c1ccc(Cl)cc1` (single isomer, unassigned; (-)) [(−)-myclobutanil], in data set [5], the “individual first order rate constant” value was 0.046 h⁻¹.
As for `CCOC1Oc2ccc(OS(C)(=O)=O)cc2C1(C)C` (centres unmarked) [ETO, ethofumesate], in data set [6], the enantiomeric enrichment factor was −75 ± 11%.
Take `COCC(=O)N(c1c(C)cccc1C)C(C)C(=O)OC` (centres unmarked) [metalaxyl]: the “Enantiomeric enrichment factor, εER” value in data set [7] was −78 ± 14%.
